For one data set, the system named is Long-Evans rats. In words: Reinstatement of drug-seeking induced by oxycodone priming in rats. It is filed as in vivo, rat. The note with it: 5-15 mg/kg i.p., oxycodone priming 1 mg/kg i.p. On the procedure:
Experiment 3. […] After completion of self-administration training, three additional groups of animals were exposed to the extinction conditions, in which cocaine was replaced by saline, and the cocaine-associated cue-light and tone were turned off. Active lever-pressing led only to saline infusion. Daily 3 hr extinction sessions for each rat continued until lever presses ≤10 times per 3 h session for at least 3 consecutive days. […] Fifteen min after injection, they were given a priming injection of oxycodone (1 mg/kg i.p.) and immediately put into the self-administration chambers. Animals were allowed to press levers for another extinction session and their responses on the levers were recorded.

Data set [1] in a line: Phase I metabolic stability in monkey liver microsomes. It is filed as in vitro ADME, rhesus monkey. The settings on record: FIG. 1; 10 μM, 0.5 mg/mL microsomes. On the procedure:
Methods: Phase I metabolic stability assay was conducted in rat and rhesus monkey liver microsomes. For phase I metabolism, the reaction was carried out with 100 mM potassium phosphate buffer, pH 7.4, in the presence of NADPH regenerating system (1.3 mM NADPH, 3.3 mM glucose 6-phosphate, 3.3 mM MgCl2, 0.4 U/mL glucose-6-phosphate dehydrogenase, 50 μM sodium citrate). Reactions in triplicate were initiated by addition of the liver microsomes to the incubation mixture (compound final concentration was 10 μM; 0.5 mg/mL microsomes). Negative controls in the absence of cofactors were carried out to determine the specific cofactor-free degradation. Compound disappearance was monitored via LC/MS/MS. Chromatographic analysis was performed using an Accela™ ultra high-performance system consisting of an analytical pump, and an autosampler coupled with TSQ Vantage mass spectrometer (Thermo Fisher Scientific Inc., Waltham MA). […] The mobile phase used was composed of 0.1% Formic Acid in Acetonitrile and 0.1% Formic Acid in H2O with gradient elution, starting with 10% (organic) linearly increasing to 99% up to 2 min, maintaining at 99% (2-2.5 min) and re-equilibrating to 10% by 2.7 min. The total run time for each analyte was 5.0 min.
On the technique in general: Liver microsomes are a subcellular fraction often used to study metabolism.

The test system of another data set is squirrel monkeys. Briefly: Food self-administration in squirrel monkeys. In kind it is in vivo, squirrel monkey (Saimiri sciureus). The note with it: squirrel monkeys, 1, 3, and 10 mg/kg i.m., FIG. 8. An excerpt:
Subjects: Seven adult male squirrel monkeys (Saimiri sciureus) weighing 0.8 to 1.1 kg were housed in individual cages in a temperature- and humidity-controlled room with unrestricted access to water. […] The monkeys were trained to self-administer either THC or food pellets prior to the study. Monkeys were fed (approximately two hours after the session) a daily food ration consisting of biscuits of high protein monkey diet (Lab Diet 5045, PMI Nutrition International, Richmond, Indiana). The number of biscuits (8-14) was determined for each monkey individually to maintain their body weights at a constant level throughout the study. Monkeys self-administering food pellets had the number of biscuits adjusted to maintain the motivation to perform a food-reinforced task. Fresh fruits, vegetables and environmental enrichment were provided daily. […]
Data analysis: The number of reinforcements (injections or pellets) per session represents total number of injections delivered during each 1-hour session. The rates of responding are expressed as responses per second averaged over the 1 h session, with time and responding during time-outs not included in calculations. Data are expressed as mean response rates and numbers of reinforcements per session ±SEM. […]

The target in a further data set is T1, human D3R (Homo sapiens, UniProt P35462).
T1 construct: expressed in transfected cells; host or cells: HEK293
In words: Radioligand competition binding, [3H]N-methylspiperone, D3R. The note with it: Table 1A; HEK 293 cells transfected with hD3R, [3H]N-methylspiperone; read-out: D3R K ± SEM. As for the experimental part:
Binding at dopamine D2-like receptors was determined using previously described methods. […] Upon reaching 80-90% confluence, cells were harvested using pre-mixed Earle's Balanced Salt Solution (EBSS) with 5 μM EDTA (Life Technologies) and centrifuged at 3000 rpm for 10 min at 21° C. The supernatant was removed and the pellet was resuspended in 10 mL hypotonic lysis buffer (5 mM MgCl2·6H2O, 5 mM Tris, pH 7.4 at 4° C.) and centrifuged at 20,000 rpm for 30 min at 4° C. The pellet was then resuspended in fresh EBSS buffer made from 8.7 g/L Earle's Balanced Salts without phenol red (US Biological, Salem, MA), 2.2 g/L sodium bicarbonate, pH to 7.4. A Bradford protein assay (Bio-Rad, Hercules, CA) was used to determine the protein concentration and membranes were diluted to 500 μg/mL and stored in a −80° C. freezer for later use.
Radioligand competition binding experiments were conducted using thawed membranes. Test compounds were freshly dissolved in 30% DMSO and 70% H2O to a stock concentration of 100 μM. To assist the solubilization of free-base compounds, 10 μl of glacial acetic acid was added along with the DMSO. Each test compound was then diluted into 13 half-log serial dilutions using 30% DMSO vehicle; final test concentrations ranged from 10 μM to 10 pM. Previously frozen membranes were diluted in fresh EBSS to a 100 μg/mL (for hD2R or hD3R) or 200 μg/mL (hD4R) stock for binding. Radioligand competition experiments were conducted in glass tubes containing 300 μl fresh EBSS buffer with 0.2 mM sodium metabisulfite, 50 μl of diluted test compound, 100 μl of membranes (10 μg total protein for hD2R or hD3R, 20 μg total protein for hD4R), and 50 μl of [^3H]N-methylspiperone (0.4 nM final concentration; Perkin Elmer). Nonspecific binding was determined using 10 μM butaclamol (Sigma-Aldrich, St. Louis, MO) and total binding was determined with 30% DMSO vehicle. All compound dilutions were tested in triplicate and the reaction incubated for one hour at room temperature. The reaction was terminated by filtration through Whatman GF/B filters, presoaked for one hour in 0.5% polyethylenimine, using a Brandel R48 filtering manifold (Brandel Instruments, Gaithersburg, MD). The filters were washed 3 times with 3 mL of ice cold EBSS buffer and transferred to scintillation vials. […] IC50 values for each compound were determined from dose-response curves and Ki values were calculated using the Cheng-Prusoff equation; these analyses were performed using GraphPad Prism version 5.00 for Windows (GraphPad Software, San Diego, CA). Reported Ki values were determined from least three independent experiments.

Entries after “also recorded” stand apart in the source; their conditions may differ.

T1 sequence (P35462 whole entry): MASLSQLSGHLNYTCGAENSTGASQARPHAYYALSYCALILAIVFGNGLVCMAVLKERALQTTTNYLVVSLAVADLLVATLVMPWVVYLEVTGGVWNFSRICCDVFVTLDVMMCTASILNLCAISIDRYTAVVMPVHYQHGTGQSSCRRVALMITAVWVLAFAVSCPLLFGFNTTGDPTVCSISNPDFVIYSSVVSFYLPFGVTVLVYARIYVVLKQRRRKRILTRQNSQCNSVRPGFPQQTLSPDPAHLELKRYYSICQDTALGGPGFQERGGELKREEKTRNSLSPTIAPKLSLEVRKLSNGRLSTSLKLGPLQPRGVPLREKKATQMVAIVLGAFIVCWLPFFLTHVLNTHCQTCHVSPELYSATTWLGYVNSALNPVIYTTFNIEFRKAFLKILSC

For the compound `CCc1cc(Cl)c(OC)c(N2CCN(CC(O)CCNC(=O)c3cc4ccccc4[nH]3)CC2)c1` (racemic) [Compound 29, N-(4-(4-(3-chloro-5-ethyl-2-methoxyphenyl)piperazin-1-yl)-3-hydroxybutyl)-1H-indole-2-carboxamide], the “oxycodone-induced reinstatement to drug seeking” value in the data set with Long-Evans rats (FIG. 4) is “blocked oxycodone-induced reinstatement to drug seeking”; in the data set on Long-Evans rats (FIG. 4, listed as (±)-29), “attenuating effects”. For the same compound, the “metabolic stability in monkey liver microsomes versus PG648” value in data set [1] was “improved metabolic stability as compared to Compound 1; also recorded: surprisingly high metabolic stability”. Also, the figures for the food self-administration entry in the data set on squirrel monkeys and with squirrel monkeys (listed as (±)-29) were “has no effect on food self-administration; also recorded: without affecting food self-administration” and “no effect on food self-administration”, respectively. Moreover, the Ki on human D3R came to 6.29 nM.
